Measured values taken from patent US20230406885A1, “CYCLIC PEPTIDES FOR TRAPPING INTERLEUKIN-1 BETA” (MERCK SHARP & DOHME LLC, priority 2022, published 2023).
Where a SMILES comes first, the peptide text is derived from it. [ ]: non-standard residue; d: D form. Bip(4'-COOH) = N[C@@H](Cc1ccc(-c2ccc(C(=O)O)cc2)cc1)C(=O)O; 1Nal(3S-Me) = C[C@@H](c1cccc2ccccc12)[C@H](N)C(=O)O; hPhe(4-CF3) = N[C@@H](CCc1ccc(C(F)(F)F)cc1)C(=O)O; Phe(4-COOH) = N[C@@H](Cc1ccc(C(=O)O)cc1)C(=O)O; Pro(4R-NH2) = N[C@H]1CN[C@H](C(=O)O)C1; 1Nal = N[C@@H](Cc1cccc2ccccc12)C(=O)O; AEF = NCCOc1ccc(C[C@H](N)C(=O)O)cc1; hTyr = N[C@@H](CCc1ccc(O)cc1)C(=O)O; 4Pal = N[C@@H](Cc1ccncc1)C(=O)O; Orn = NCCC[C@H](N)C(=O)O; dNMeA = CN[C@H](C)C(=O)O; Dab = NCC[C@H](N)C(=O)O; Nva = CCC[C@H](N)C(=O)O; Aib = CC(C)(N)C(=O)O

biological target: T1, Recombinant human IL-1β (Homo sapiens, UniProt P01584); assay: IL-6 assay in MRC5 cells: inhibition of IL-1β induced IL-6 secretion (AlphaLISA); assay type: cell-based; settings: inhibition of IL-1β induced IL-6 secretion in MRC5 cells; IL-1β pre-incubated 1 hour with compound; read-out: MRC5 IC50
T1 construct: purchased BioLegend 579404
T1 sequence (P01584 117-269): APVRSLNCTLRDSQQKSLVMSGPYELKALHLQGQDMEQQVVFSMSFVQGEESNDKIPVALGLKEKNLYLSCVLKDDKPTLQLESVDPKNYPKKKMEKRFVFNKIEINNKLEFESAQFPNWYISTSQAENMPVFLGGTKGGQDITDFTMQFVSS
Summary of the method: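 IL-1β at 2×EC80 in seeding medium (EMEM, 0.025% BSA) preincubated 1 h at ambient temperature with compound, then 3000 MRC5 cells/well added and incubated overnight at 37 °C, 5% CO2. IL-6 in conditioned medium quantified by AlphaLISA; IC50 from 4-parameter logistic fit.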

IC50 [nM] | Structure (SMILES)
0.422 | CC(=O)NCCOc1ccc(C[C@@H]2NC(=O)CNC(=O)C(C)(C)NC(=O)[C@H](CC(C)C)NC(=O)[C@H](Cc3cccc4ccccc34)NC(=O)[C@H](Cc3ccc(-c4ccc(C(=O)O)cc4)cc3)NC(=O)CNC(=O)[C@@H](C)N(C)C(=O)[C@H](CC(=O)O)NC(=O)[C@H]([C@@H](C)c3cccc4ccccc34)NC(=O)[C@@H]3C[C@@H](N)CN3C(=O)CNC(=O)[C@H](Cc3ccc(C(=O)O)cc3)NC(=O)[C@H](Cc3c[nH]c4ccccc34)NC2=O)cc1 [Example 95] (cyclo([AEF](Ac)W[Phe(4-COOH)]G[Pro(4R-NH2)][1Nal(3S-Me)]D[dNMeA]G[Bip(4'-COOH)][1Nal]L[Aib]G))
0.295 | CC(=O)NCCOc1ccc(C[C@@H]2NC(=O)[C@H](C)NC(=O)[C@@H](C)NC(=O)[C@H](CC(C)C)NC(=O)[C@H](Cc3cccc4ccccc34)NC(=O)[C@H](Cc3ccc(-c4ccc(C(=O)O)cc4)cc3)NC(=O)CNC(=O)[C@@H](C)N(C)C(=O)[C@H](CC(=O)O)NC(=O)[C@H]([C@@H](C)c3cccc4ccccc34)NC(=O)[C@@H]3C[C@@H](N)CN3C(=O)CNC(=O)[C@H](Cc3ccc(C(=O)O)cc3)NC(=O)[C@H](Cc3c[nH]c4ccccc34)NC2=O)cc1 [Example 97] (cyclo([AEF](Ac)W[Phe(4-COOH)]G[Pro(4R-NH2)][1Nal(3S-Me)]D[dNMeA]G[Bip(4'-COOH)][1Nal]L[dA]A))
0.494 | CCC[C@@H]1NC(=O)[C@H](Cc2cccc3ccccc23)NC(=O)[C@H](Cc2ccc(-c3ccc(C(=O)O)cc3)cc2)NC(=O)CNC(=O)[C@@H](C)N(C)C(=O)[C@H](CC(=O)O)NC(=O)[C@H]([C@@H](C)c2cccc3ccccc23)NC(=O)[C@@H]2C[C@@H](N)CN2C(=O)CNC(=O)[C@H](Cc2ccc(C(=O)O)cc2)NC(=O)[C@H](Cc2c[nH]c3ccccc23)NC(=O)[C@H](Cc2ccc(OCCNC(C)=O)cc2)NC(=O)[C@H](C)NC(=O)[C@@H](C)NC1=O [Example 98] (cyclo([AEF](Ac)W[Phe(4-COOH)]G[Pro(4R-NH2)][1Nal(3S-Me)]D[dNMeA]G[Bip(4'-COOH)][1Nal][Nva][dA]A))
0.256 | CC(=O)NCCOc1ccc(C[C@@H]2NC(=O)[C@H](CCc3ccc(O)cc3)NC(=O)C(C)(C)NC(=O)[C@H](CCCN)NC(=O)[C@H](Cc3cccc4ccccc34)NC(=O)[C@H](Cc3ccc(-c4ccc(C(=O)O)cc4)cc3)NC(=O)CNC(=O)[C@@H](C)N(C)C(=O)[C@H](CC(=O)O)NC(=O)[C@H]([C@@H](C)c3cccc4ccccc34)NC(=O)[C@@H]3C[C@@H](N)CN3C(=O)CNC(=O)[C@H](Cc3ccc(C(=O)O)cc3)NC(=O)[C@H](Cc3c[nH]c4ccccc34)NC2=O)cc1 [Example 99] (cyclo([AEF](Ac)W[Phe(4-COOH)]G[Pro(4R-NH2)][1Nal(3S-Me)]D[dNMeA]G[Bip(4'-COOH)][1Nal][Orn][Aib][hTyr]))
0.274 | CC(=O)NCCOc1ccc(C[C@@H]2NC(=O)[C@H](CCc3ccc(C(F)(F)F)cc3)NC(=O)[C@@H](C)NC(=O)[C@H](CCN)NC(=O)[C@H](Cc3ccncc3)NC(=O)[C@H](Cc3ccc(-c4ccc(C(=O)O)cc4)cc3)NC(=O)CNC(=O)[C@@H](C)N(C)C(=O)[C@H](CC(=O)O)NC(=O)[C@H]([C@@H](C)c3cccc4ccccc34)NC(=O)[C@@H]3C[C@@H](N)CN3C(=O)CNC(=O)[C@H](Cc3ccc(C(=O)O)cc3)NC(=O)[C@H](Cc3c[nH]c4ccccc34)NC2=O)cc1 [Example 100] (cyclo([AEF](Ac)W[Phe(4-COOH)]G[Pro(4R-NH2)][1Nal(3S-Me)]D[dNMeA]G[Bip(4'-COOH)][4Pal][Dab][dA][hPhe(4-CF3)]))
0.247 | CC(=O)NCCOc1ccc(C[C@@H]2NC(=O)[C@H](CCc3ccc(O)cc3)NC(=O)[C@@H](C)NC(=O)[C@H](CCN)NC(=O)[C@H](Cc3ccncc3)NC(=O)[C@H](Cc3ccc(-c4ccc(C(=O)O)cc4)cc3)NC(=O)CNC(=O)[C@@H](C)N(C)C(=O)[C@H](CC(=O)O)NC(=O)[C@H]([C@@H](C)c3cccc4ccccc34)NC(=O)[C@@H]3C[C@@H](N)CN3C(=O)CNC(=O)[C@H](Cc3ccc(C(=O)O)cc3)NC(=O)[C@H](Cc3c[nH]c4ccccc34)NC2=O)cc1 [Example 101] (cyclo([AEF](Ac)W[Phe(4-COOH)]G[Pro(4R-NH2)][1Nal(3S-Me)]D[dNMeA]G[Bip(4'-COOH)][4Pal][Dab][dA][hTyr]))
